The values below come from ChEMBL document CHEMBL1201862, “PubChem BioAssay data set” (2004).

SMILES strings stand for the structures.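 Method: 48-hour compound exposure of cells in 96-well plates, five concentrations, linear interpolation of endpoints. Abbreviation: GI50, concentration required for 50% inhibition of growth.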 Active and inactive are the calls of the source. No stated cut-off is given here; in the data, active = GI50 up to about 1.1 µM and inactive = higher.

Usually GI50 stands for the concentration that inhibits growth by half.

Some test systems named below: HT-29; SN12C; U-251; OVCAR-4; TK-10; Malme-3M; HOP-62; SF-295; HL-60; SNB-75; UO-31; HCC 2998; 786-0; SF-268; SK-OV-3; SR.
What all share (assay): DTP human tumour cell line panel, 48 h

For the molecule `O=C(N[C@H]1CC2(C=C(I)C(=O)C(I)=C2)OC1=O)OCc1ccccc1`, the GI50 in the assay on HT-29 was 17.5 µM (inactive); with SN12C, 18.2 µM (inactive); with U-251 it was 17.3 µM (inactive); in the assay with OVCAR-4 it was 18.4 µM (inactive); in the assay with TK-10 it was 17.7 µM (inactive); in the assay on Malme-3M, 17.3 µM (inactive). Besides, the GI50 in the assay on HOP-62 is 22.6 µM (inactive); in the assay on SF-295, 19.5 µM (inactive); in the assay on HL-60 it was 3.93 µM (inactive); in the assay with SNB-75 it was 19.6 µM (inactive); in the assay on UO-31, 18.2 µM (inactive); with HCC 2998, 17.9 µM (inactive). The values for the GI50 with 786-0, in the assay with SF-268 and in the assay with SK-OV-3 were 20.8 µM (inactive), 18.1 µM (inactive) and 34.8 µM (inactive), respectively.

As to `Cn1nc(-c2ccccc2)c(C(=O)/C=C/c2ccc(F)cc2)c(N2CCOCC2)c1=O`, the GI50 is 15.9 µM (inactive) in the assay on HT-29; 28.3 µM (inactive) in the assay on SN12C; 16.7 µM (inactive) in the assay with U-251; 28.6 µM (inactive) in the assay on TK-10; 18.2 µM (inactive) in the assay on SF-295; 14.6 µM (inactive) in the assay on HL-60. Besides, the GI50 was 12.9 µM (inactive) in the assay on UO-31, 16 µM (inactive) in the assay on 786-0, 19.1 µM (inactive) in the assay with SF-268 and 32.7 µM (inactive) in the assay with SK-OV-3.

As to `CN(C)CCNC(=O)c1ccc(Cl)c2c(Nc3ccc(S(=O)(=O)N=C(N)N)cc3)c3ccccc3nc12`, the GI50 was 2.05 µM (inactive) in the assay on HT-29; 3.15 µM (inactive) with SN12C; 3.29 µM (inactive) in the assay with U-251; 1.87 µM (inactive) in the assay with OVCAR-4; 12.6 µM (inactive) in the assay with TK-10; 10.1 µM (inactive) in the assay with HOP-62. Besides, the GI50 with SF-295 is 3.16 µM (inactive); in the assay with HL-60 it was 1.7 µM (inactive); with SR, 0.54 µM (active); with SNB-75 it was > 10 µM (inactive); in the assay on UO-31, 0.349 µM (active); with HCC 2998 it was 8.17 µM (inactive). Besides, the figures for the GI50 in the assay on 786-0 and with SF-268 were 14.3 µM (inactive) and 3.48 µM (inactive), respectively.

Consider `Cc1ccc(C(=O)/C=C2\Nc3c(c(=O)oc4ccccc34)N=C2NC23CC4CC(CC(C4)C2)C3)cc1`, for which the GI50 in the assay on HT-29, in the assay with SN12C, in the assay with U-251, in the assay on TK-10, in the assay with Malme-3M and with HOP-62 was > 100 µM (inactive) in each case. In addition, the GI50 with HL-60 is > 100 µM (inactive); with SR, > 100 µM (inactive); with SNB-75, 28.6 µM (inactive); in the assay with UO-31, > 100 µM (inactive); in the assay with HCC 2998 it was > 100 µM (inactive); in the assay on 786-0, > 100 µM (inactive). Further, the GI50 with SF-268 and in the assay with SK-OV-3 was > 100 µM (inactive) throughout.

With `C1=C2/CC[C@H](Sc3ccccc3)[C@H]2C2(CCCCC/1)OCCO2`, the GI50 with HT-29 was 34.6 µM (inactive); in the assay with SN12C, > 100 µM (inactive); in the assay on U-251, 21.8 µM (inactive); in the assay on TK-10, > 100 µM (inactive); in the assay with Malme-3M, 28.5 µM (inactive); in the assay on HOP-62, 40.4 µM (inactive). Also, the GI50 with SF-295 was 37.8 µM (inactive); with HL-60, 22.2 µM (inactive); with SR, 42.9 µM (inactive); with SNB-75, 27.9 µM (inactive); in the assay on UO-31, 27 µM (inactive); with HCC 2998, 22.3 µM (inactive). The GI50 is 40.2 µM (inactive) with 786-0, 82.8 µM (inactive) in the assay with SF-268 and 31 µM (inactive) with SK-OV-3.

As for `Cc1cccc(NC(=O)CC(=O)N2N=C(N(CCC#N)c3ccc(Cl)cc3)CC2c2ccccc2)c1` (stereo not given), the GI50 with HT-29, in the assay on SN12C, in the assay with U-251, in the assay with OVCAR-4, with TK-10 and in the assay on Malme-3M was > 100 µM (inactive) throughout. Moreover, the GI50 in the assay with HOP-62, in the assay with SF-295, in the assay with HL-60, in the assay on SR, in the assay on SNB-75 and in the assay on UO-31 was > 100 µM (inactive) in each case. The GI50 in the assay with HCC 2998, in the assay with 786-0 and in the assay with SF-268 was > 100 µM (inactive) each time.

For the molecule `COC(=O)N1C=CC2=C(C)C3Nc4ccccc4C3C(C)=C2C1` (stereo not given), the GI50 in the assay with HT-29 is 1.96 µM (inactive); in the assay on U-251 it was 3.1 µM (inactive); in the assay with OVCAR-4 it was 1.34 µM (inactive); with TK-10, 1.66 µM (inactive); in the assay with Malme-3M, 3.03 µM (inactive); in the assay on HOP-62, 1.73 µM (inactive). Moreover, the GI50 is 1.64 µM (inactive) with SF-295; 1.98 µM (inactive) in the assay on HL-60; 2.24 µM (inactive) in the assay with SNB-75; 1.29 µM (inactive) with UO-31; 1.95 µM (inactive) in the assay with HCC 2998; 0.54 µM (active) in the assay with 786-0. For the same molecule, the GI50 with SF-268 is 1.94 µM (inactive); with SK-OV-3, 1.86 µM (inactive).

Regarding `O=c1c2c([nH]c3cc4c(cc13)OCO4)-c1ccccc1C2`, the GI50 in the assay on HT-29 is 17.7 µM (inactive); with SN12C it was 30.3 µM (inactive); with U-251, 17.2 µM (inactive); with OVCAR-4, 33.3 µM (inactive); in the assay on TK-10, 10.7 µM (inactive); in the assay with Malme-3M, 23.2 µM (inactive). Besides, the GI50 with HOP-62 is 23.4 µM (inactive); with SF-295, 26.9 µM (inactive); with HL-60, 27.7 µM (inactive); in the assay on SR, 18.1 µM (inactive); in the assay on UO-31, 24.8 µM (inactive); in the assay with HCC 2998, 24.4 µM (inactive). Besides, the GI50 with 786-0 was 28.1 µM (inactive); in the assay with SF-268 it was 36.2 µM (inactive); in the assay with SK-OV-3, 31.3 µM (inactive).

Regarding `Cc1c(C(=O)O)oc2ccc([N+](=O)[O-])cc12`, the GI50 with HT-29, with SN12C, in the assay on U-251, in the assay on OVCAR-4, in the assay on TK-10 and in the assay on Malme-3M was > 100 µM (inactive) in each case. The GI50 in the assay with HOP-62, with SF-295, in the assay on HL-60, in the assay with UO-31, in the assay on HCC 2998 and in the assay with 786-0 was > 100 µM (inactive) throughout. Also, the GI50 in the assay on SF-268 and in the assay on SK-OV-3 was > 100 µM (inactive) throughout.

On to `CCOc1ccccc1NC(=O)C1=C(C)NC(C)=C(C(=O)Nc2ccccc2OCC)C1c1ccc2c(c1)OCO2`, for which the GI50 was 37.2 µM (inactive) in the assay with HT-29; 38.7 µM (inactive) in the assay with SN12C; 47.5 µM (inactive) in the assay with U-251; 20.8 µM (inactive) with OVCAR-4; 76.6 µM (inactive) in the assay with TK-10; 26.2 µM (inactive) with Malme-3M. The GI50 in the assay on HOP-62 is 37.4 µM (inactive); with SF-295, 21.2 µM (inactive); with HL-60, 10.7 µM (inactive); in the assay with SNB-75 it was 3.53 µM (inactive); in the assay with UO-31, 21.8 µM (inactive); with HCC 2998, 10.1 µM (inactive). Moreover, the GI50 in the assay with 786-0 is 41.3 µM (inactive); with SF-268, 41.5 µM (inactive); in the assay with SK-OV-3, 18 µM (inactive).

In the case of `CC1(C)C(=O)N(CCCCCCN2C(=O)C(C)(C)c3ccccc32)c2ccccc21`, the GI50 was 19 µM (inactive) in the assay on HT-29; 59.7 µM (inactive) in the assay on SN12C; 36.6 µM (inactive) with U-251; 23.4 µM (inactive) in the assay on OVCAR-4; 58.3 µM (inactive) in the assay with TK-10; 25.9 µM (inactive) with Malme-3M. Further, the GI50 is 80.7 µM (inactive) with HOP-62; 44.1 µM (inactive) in the assay on SF-295; 2.04 µM (inactive) in the assay with HL-60; 39.1 µM (inactive) in the assay with SNB-75; 31.2 µM (inactive) in the assay with UO-31; 71.6 µM (inactive) in the assay on HCC 2998. Also, the values for the GI50 in the assay with 786-0, in the assay on SF-268 and in the assay with SK-OV-3 were 18.2 µM (inactive), 60.8 µM (inactive) and > 100 µM (inactive), respectively.

In the case of `CCOc1ccccc1NC(=O)CC1SC(Nc2ccc([N+](=O)[O-])cc2)=NC1=O` (stereo not given), the GI50 with HT-29 is 21.7 µM (inactive); in the assay on SN12C it was 20.4 µM (inactive); with U-251, 14.3 µM (inactive); with OVCAR-4, 11.6 µM (inactive); in the assay with TK-10, 25.4 µM (inactive); in the assay on Malme-3M, 22.5 µM (inactive). For the same molecule, the GI50 was 18.5 µM (inactive) in the assay with HOP-62; 18 µM (inactive) in the assay on SF-295; 32.6 µM (inactive) with HL-60; 23.2 µM (inactive) in the assay with SNB-75; 17.2 µM (inactive) in the assay with UO-31; 16.4 µM (inactive) in the assay on HCC 2998. For the same molecule, the GI50 in the assay with 786-0 was 16.7 µM (inactive); in the assay with SF-268, 29.9 µM (inactive).

As to `O=S1(=O)N2CN3CN(C2)CN1C3`, the GI50 in the assay on HT-29 is 26 µM (inactive); with SN12C it was 34.9 µM (inactive); with U-251, 331 µM (inactive); in the assay on OVCAR-4, 28.7 µM (inactive); in the assay on TK-10, 286 µM (inactive); with Malme-3M, 129 µM (inactive). Moreover, the GI50 in the assay with HOP-62 is 234 µM (inactive); in the assay on SF-295, 23.8 µM (inactive); in the assay with HL-60 it was 23.1 µM (inactive); in the assay with SNB-75, 28.8 µM (inactive); with UO-31 it was 182 µM (inactive); in the assay with HCC 2998, 255 µM (inactive). For the same molecule, the figures for the GI50 in the assay with 786-0, in the assay with SF-268 and in the assay with SK-OV-3 were 30.5 µM (inactive), > 58.3 µM (inactive) and 230 µM (inactive), respectively.

For `CC1=CP(=O)(OC(C)C)CC(C)=C1Cl` (stereo not given), the GI50 with HT-29 is 64.4 µM (inactive); with SN12C, > 100 µM (inactive); in the assay with U-251, > 100 µM (inactive); in the assay with TK-10, > 100 µM (inactive); in the assay on Malme-3M, > 100 µM (inactive); in the assay with HOP-62 it was > 100 µM (inactive). Moreover, the GI50 is > 100 µM (inactive) with SF-295; > 100 µM (inactive) in the assay on HL-60; 41.1 µM (inactive) in the assay with SR; > 100 µM (inactive) with SNB-75; > 100 µM (inactive) with UO-31; > 100 µM (inactive) with HCC 2998. The GI50 in the assay on 786-0 was > 100 µM (inactive); in the assay with SF-268 it was 82.6 µM (inactive); with SK-OV-3 it was > 100 µM (inactive).
